# Source: patent US9181230B2, “Morpholine compounds and uses thereof” (Hoffmann-La Roche Inc., priority 2013, dated 2015)
# Structures can show the parent of a compound that is named as a salt.
# Legend:
# mouse TAAR1 = mouse TAAR1 (Mus musculus (Mouse), UniProt Q923Y8); assay: Radioligand binding assay on mouse TAAR1; settings: mouse TAAR1, membranes of HEK-293 cells, first value of the cell pair mouse/rat
# Method: (§1) For the construction of expression plasmids the coding sequences of human, rat and mouse TAAR 1 were amplified from genomic DNA essentially as described by Lindemann et al.. The Expand High Fidelity PCR System (Roche Diagnostics) was used with 1.5 mM Mg^2+ and purified PCR products were cloned into pCR2.1-TOPO cloning vector (Invitrogen) following the instructions of the manufacturer. PCR products were subcloned into the pIRESneo2 vector (BD Clontech, Palo Alto, Calif.), and expression vectors were sequence verified before introduction in cell lines.
# (§2) HEK293 cells (ATCC # CRL-1573) were cultured essentially as described by Lindemann et al. (2005). For the generation of stably transfected cell lines HEK293 cells were transfected with the pIRESneo2 expression plasmids containing the TAAR coding sequences (described above) with Lipofectamine 2000 (Invitrogen) according to the instructions of the manufacturer, and 24 hrs post transfection the culture medium was supplemented with 1 mg/ml G418 (Sigma, Buchs, Switzerland). After a culture period of about 10 d clones were isolated, expanded and tested for responsiveness to trace amines (all compounds purchased from Sigma) with the cAMP Biotrak Enzyme immunoassay (EIA) System (Amersham) following the non-acetylation EIA procedure provided by the manufacturer.
# (A) Radioligand Binding Assay on Mouse TAAR1
# (§3) Membrane Preparation and Radioligand Binding.
# (§4) HEK-293 cells stably expressing mouse TAAR1 were maintained at 37° C. and 5% CO2 in DMEM high glucose medium, containing fetal calf serum (10%, heat inactivated for 30 min at 56° C.), penicillin/streptomycin (1%), and 375 μg/ml geneticin (Gibco). Cells were released from culture flasks using trypsin/EDTA, harvested, washed twice with ice-cold PBS (without Ca^2+ and Mg^2+), pelleted at 1,000 rpm for 5 min at 4° C., frozen and stored at −80° C. Frozen pellets were suspended in 20 ml HEPES-NaOH (20 mM, pH 7.4) containing 10 mM EDTA and homogenized with a Polytron (PT 6000, Kinematica) at 14,000 rpm for 20 s. The homogenate was centrifuged at 48,000×g for 30 min at 4° C. Subsequently, the supernatant was removed and discarded, and the pellet resuspended in 20 ml HEPES-NaOH (20 mM, pH 7.4) containing 0.1 mM EDTA using the Polytron (20 s at 14,000 rpm). This procedure was repeated and the final pellet resuspended in HEPES-NaOH containing 0.1 mM EDTA and homogenized using the Polytron. Typically, aliquots of 2 ml membrane portions were stored at −80° C. With each new membrane batch the dissociation constant (Kd) was determined via a saturation curve. […] Nonspecific binding was defined as the amount of ^3[H]-(S)-4-[(ethyl-phenyl-amino)-methyl]-4,5-dihydro-oxazol-2-ylamine bound in the presence of 10 μM unlabeled ligand. All compounds were tested at a broad range of concentrations (10 pM to 10 μM) in duplicates. […] The 96 deep well plates were incubated for 1 hr at 4° C. Incubations were terminated by rapid filtration through Unifilter-96 plates (Packard Instrument Company) and glass filters GF/C (Perkin Elmer) presoaked for 1 hr in polyethylenimine (0.3%) and washed 3 times with 1 ml of cold binding buffer. After addition of 45 μl of Microscint 40 (PerkinElmer) the Unifilter-96 plate was sealed and after 1 hr the ratioactivity counted using a TopCount Microplate Scintillation Counter (Packard Instrument Company).
# rat TAAR1 = rat TAAR1 (Rattus norvegicus (Rat), UniProt Q923Y9); assay: Radioligand binding assay on rat TAAR1; settings: rat TAAR1, membranes of HEK-293 cells, second value of the cell pair mouse/rat
# Method: as §1, §2
# (B) Radioligand Binding Assay on Rat TAAR1
# as §3
# as §4, with “rat” for “mouse”
# rat TAAR1, sequence (Q923Y9 whole entry): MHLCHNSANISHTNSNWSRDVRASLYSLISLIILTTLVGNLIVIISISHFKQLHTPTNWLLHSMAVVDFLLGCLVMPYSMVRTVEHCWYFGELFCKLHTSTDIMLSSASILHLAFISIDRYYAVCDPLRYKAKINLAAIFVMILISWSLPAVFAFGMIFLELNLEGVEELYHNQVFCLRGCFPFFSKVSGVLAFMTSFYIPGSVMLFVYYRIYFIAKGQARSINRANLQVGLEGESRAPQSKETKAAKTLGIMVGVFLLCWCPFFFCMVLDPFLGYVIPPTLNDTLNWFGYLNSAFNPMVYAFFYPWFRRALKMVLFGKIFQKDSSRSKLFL
# mouse TAAR1, sequence (Q923Y8 whole entry): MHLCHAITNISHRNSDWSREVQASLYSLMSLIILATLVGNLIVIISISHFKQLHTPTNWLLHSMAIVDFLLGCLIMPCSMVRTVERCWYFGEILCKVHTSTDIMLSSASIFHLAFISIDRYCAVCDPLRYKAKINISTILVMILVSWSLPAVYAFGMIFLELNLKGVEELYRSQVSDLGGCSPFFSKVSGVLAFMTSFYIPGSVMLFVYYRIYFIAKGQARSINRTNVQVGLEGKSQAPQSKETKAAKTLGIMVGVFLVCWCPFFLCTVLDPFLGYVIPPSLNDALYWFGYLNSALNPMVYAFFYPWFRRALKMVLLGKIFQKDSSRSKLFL
Structure (SMILES),Ki (mouse TAAR1) [µM],Ki (rat TAAR1) [µM]
"Fc1ccc(-c2nnc(-c3ccc([C@@H]4CNCCO4)cc3)o2)cc1 [Example 34, (R)-2-(4-(5-(4-Fluorophenyl)-1,3,4-oxadiazol-2-yl)phenyl)morpholine hydrochloride]",0.004,0.156
"FC(F)(F)c1ccc2c(n1)[nH]c1ccc([C@H]3CNCCO3)cc12 [Example 49, (S)-2-(2-(Trifluoromethyl)-9H-pyrido[2,3-b]indol-6-yl)morpholine hydrochloride]",0.0032,–
"c1ccc2[nH]c(-c3ccc(C4CNCCO4)cc3)nc2c1 (stereo not drawn) [Example 1, 2-(4-(1H-Benzo[d]imidazol-2-yl)phenyl)morpholine hydrochloride]",0.038,0.76
"Fc1ccc(-c2nc3cc([C@H]4CNCCO4)ccc3[nH]2)cc1 [Example 43, (S)-2-(2-(4-Fluorophenyl)-1H-benzo[d]imidazol-5-yl)morpholine hydrochloride]",0.0014,–
"Fc1ccc(-c2nc(-c3ccc([C@@H]4CNCCO4)cc3)n[nH]2)cc1 [Example 23, (R)-2-(4-(5-(4-Fluorophenyl)-1H-1,2,4-triazol-3-yl)phenyl)morpholine hydrochloride]",0.0015,0.0196
"N#Cc1cccc(-c2cc(-c3ccc(C4CNCCO4)cc3)n[nH]2)c1 (stereo not drawn) [Example 12, 3-[5-(4-Morpholin-2-yl-phenyl)-2H-pyrazol-3-yl]-benzonitrile hydrochloride]",0.0005,0.0615
"Fc1ccc(-c2cc(-c3ccc([C@H]4CNCCO4)cc3)n[nH]2)cc1 [Example 29, (S)-2-(4-(5-(4-Fluorophenyl)-1H-pyrazol-3-yl)phenyl)morpholine hydrochloride]",0.0007,0.0044
"FC(F)(F)c1cc(-c2nc3ccc([C@H]4CNCCO4)cc3o2)ccn1 [Example 55, (S)-6-(Morpholin-2-yl)-2-(2-(trifluoromethyl)pyridin-4-yl)benzo[d]oxazole hydrochloride]",–,0.304
"Fc1ccc(-c2nnc(-c3ccc([C@H]4CNCCO4)cc3)o2)cc1 [Example 17, (S)-2-(4-(5-(4-Fluorophenyl)-1,3,4-oxadiazol-2-yl)phenyl)morpholine hydrochloride]",0.0032,0.229
"Fc1ccc(-n2cc(-c3ccc([C@H]4CNCCO4)cc3)nn2)cc1 [Example 18, (S)-2-(4-(1-(4-Fluorophenyl)-1H-1,2,3-triazol-4-yl)phenyl)morpholine hydrochloride]",0.002,–
"FC(F)(F)c1cc(-c2nc3ccc([C@@H]4CNCCO4)cc3o2)ccn1 [Example 54, (R)-6-(Morpholin-2-yl)-2-(2-(trifluoromethyl)pyridin-4-yl)benzo[d]oxazole hydrochloride]",–,0.448
"Fc1ccc(-n2cc(-c3ccc([C@@H]4CNCCO4)cc3)nn2)cc1 [Example 35, (R)-2-(4-(1-(4-Fluorophenyl)-1H-1,2,3-triazol-4-yl)phenyl)morpholine hydrochloride]",0.0017,–
"c1cnc2[nH]c3ccc([C@H]4CNCCO4)cc3c2c1 [Example 45, (S)-2-(9H-Pyrido[2,3-b]indol-6-yl)morpholine hydrochloride]",–,1
"Cc1cc2nc(-c3ccc([C@H]4CNCCO4)cc3)[nH]c2cc1C [Example 16, (S)-2-(4-(5,6-Dimethyl-1H-benzo[d]imidazol-2-yl)phenyl)morpholine hydrochloride]",–,1.14
"Fc1ccc(-c2ncn(-c3ccc([C@H]4CNCCO4)cc3)n2)cc1 [Example 25, (S)-2-(4-(3-(4-Fluorophenyl)-1H-1,2,4-triazol-1-yl)phenyl)morpholine hydrochloride]",0.0034,–
"Fc1cc(F)c2nc(-c3ccc([C@H]4CNCCO4)cc3)[nH]c2c1 [Example 11, (S)-2-(4-(4,6-Difluoro-1H-benzo[d]imidazol-2-yl)phenyl)morpholine hydrochloride]",0.009,–
"O=C(Nc1cc(-c2ccc([C@H]3CNCCO3)cc2)n[nH]1)c1ccc(F)cc1 [Example 30, (S)-4-Fluoro-N-(3-(4-(morpholin-2-yl)phenyl)-1H-pyrazol-5-yl)benzamide hydrochloride]",0.0022,–
"Fc1ccc(-c2cc(-c3ccc([C@H]4CNCCO4)cc3)n[nH]2)c(F)c1 [Example 13, (S)-2-(4-(5-(2,4-Difluorophenyl)-1H-pyrazol-3-yl)phenyl)morpholine hydrochloride]",0.0003,–
"Fc1ccc(-c2cn(-c3ccc([C@H]4CNCCO4)cc3)nn2)cc1 [Example 27, (S)-2-(4-(4-(4-Fluorophenyl)-1H-1,2,3-triazol-1-yl)phenyl)morpholine hydrochloride]",0.0004,–
"Fc1ccc(-c2cc(-c3ccc([C@@H]4CNCCO4)cc3)n[nH]2)c(F)c1 [Example 14, (R)-2-(4-(5-(2,4-Difluorophenyl)-1H-pyrazol-3-yl)phenyl)morpholine hydrochloride]",0.0008,–
"Clc1ccc2nc(-c3ccc(C4CNCCO4)cc3)[nH]c2c1 (stereo not drawn) [Example 2, 2-(4-(6-Chloro-1H-benzo[d]imidazol-2-yl)phenyl)morpholine hydrochloride]",0.0032,–
"Fc1ccc(-c2nc3cc([C@@H]4CNCCO4)ccc3[nH]2)cc1 [Example 44, (R)-2-(2-(4-Fluorophenyl)-1H-benzo[d]imidazol-5-yl)morpholine hydrochloride]",0.004,–
"Brc1cnc2nc(-c3ccc([C@H]4CNCCO4)cc3)[nH]c2c1 [Example 7, (S)-2-(4-(6-bromo-1H-imidazo[4,5-b]pyridin-2-yl)phenyl)morpholine hydrochloride]",0.0089,–
"Clc1cc(-c2cc(-c3ccc([C@H]4CNCCO4)cc3)n[nH]2)ccn1 [Example 42, (S)-2-(4-(5-(2-Chloropyridin-4-yl)-1H-pyrazol-3-yl)phenyl)morpholine hydrochloride]",0.0016,–
"Fc1ccc(-c2ncn(-c3ccc([C@@H]4CNCCO4)cc3)n2)cc1 [Example 36, (R)-2-(4-(3-(4-Fluorophenyl)-1H-1,2,4-triazol-1-yl)phenyl)morpholine hydrochloride]",0.0097,–
"N#Cc1ccc(-c2cc(-c3ccc([C@H]4CNCCO4)cc3)n[nH]2)c(F)c1 [Example 33, (S)-3-Fluoro-4-(3-(4-(morpholin-2-yl)phenyl)-1H-pyrazol-5-yl)benzonitrile hydrochloride]",0.0016,–
"Fc1ccc(-c2cn(-c3ccc([C@@H]4CNCCO4)cc3)nn2)cc1 [Example 39, (R)-2-(4-(4-(4-Fluorophenyl)-1H-1,2,3-triazol-1-yl)phenyl)morpholine hydrochloride]",0.001,–
